Measured values: patent EP1921068A1, “Indazole and indole derivatives as anti-inflammatory agents” (Bayer Schering Pharma Aktiengesellschaft, priority 2006, dated 2008)

Experiments:
[1] = biological target: T1, glucocorticoid receptor (GR) (Homo sapiens, UniProt P04150); experiment: Binding to recombinantly produced glucocorticoid receptor (cytosol preparations of baculovirus-infected Sf9 cells, [3H]-dexamethasone as reference substance); conditions: recombinant GR
T1 construct: made in house; host or cells: Sf9 insect cells infected with recombinant baculovirus; cytosol preparation
T1 sequence (P04150 1-777): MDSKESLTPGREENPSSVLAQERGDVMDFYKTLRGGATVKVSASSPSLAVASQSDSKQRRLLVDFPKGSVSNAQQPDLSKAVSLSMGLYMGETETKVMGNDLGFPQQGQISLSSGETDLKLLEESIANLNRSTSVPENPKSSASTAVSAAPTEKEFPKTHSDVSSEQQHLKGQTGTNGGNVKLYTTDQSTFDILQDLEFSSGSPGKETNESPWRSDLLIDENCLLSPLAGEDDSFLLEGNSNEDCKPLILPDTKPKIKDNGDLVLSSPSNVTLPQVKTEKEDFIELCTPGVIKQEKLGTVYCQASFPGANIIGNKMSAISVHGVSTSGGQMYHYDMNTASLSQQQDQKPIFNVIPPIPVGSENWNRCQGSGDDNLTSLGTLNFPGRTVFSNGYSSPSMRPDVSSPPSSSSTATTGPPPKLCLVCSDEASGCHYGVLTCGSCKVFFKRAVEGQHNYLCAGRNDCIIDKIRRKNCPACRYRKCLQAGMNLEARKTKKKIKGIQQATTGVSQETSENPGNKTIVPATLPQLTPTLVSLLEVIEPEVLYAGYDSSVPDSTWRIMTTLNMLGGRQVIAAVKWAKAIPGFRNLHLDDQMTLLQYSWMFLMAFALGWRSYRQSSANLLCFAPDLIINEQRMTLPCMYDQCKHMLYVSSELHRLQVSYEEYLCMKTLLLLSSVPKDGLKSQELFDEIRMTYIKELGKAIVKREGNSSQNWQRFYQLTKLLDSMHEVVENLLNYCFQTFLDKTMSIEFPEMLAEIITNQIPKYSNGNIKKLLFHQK
Excerpt: The binding of the substances to the glucocorticoid receptor (GR) and other steroid hormone receptors (mineral corticoid receptor (MR), progesterone receptor (PR) and androgen receptor (AR)) is examined with the aid of recombinantly produced receptors. Cytosol preparations of Sf9 cells, which had been infected with recombinant baculoviruses, which code for the GR, are used for the binding studies. In comparison to reference substance [^3H]-dexamethasone, the substances show a high to very high affinity to GR. IC50(GR) = 11,5 nM was thus measured for the compound from Example A16.

[2] = tested on: secretion of cytokine IL-8 into the human monocyte cell line THP-1; experiment: Inhibition of LPS-triggered IL-8 secretion in THP-1 cells (ELISA of supernatant); format: cell-based
Description: The concentration of the cytokines was determined in the supernatant by means of commercially available ELISA kits.

**Q.** CC(C)(CC(O)(CNc1cccc2c1cnn2-c1ccc(F)nc1)C(F)(F)F)c1cccc2c1OCO2 (stereo not drawn) [Example A16] was tested. Which IC50 [1] did it give?
**A.** 11.5 nM

**Q.** What about the Emax ([2]; efficacy relative to dexamethasone, read-out: eff. relative to dexamethasone) of the same compound?
**A.** 94%

**Q.** And the IC50 ([2]; read-out: IC50(IL8))?
**A.** 0.3 nM
